Results on 17 molecules are retold here after patent publication US20210052473A1, “COMPOSITION FOR REMOVING ALDEHYDE-BASED ODORS AND REACTIVE OXYGEN SPECIES” (Osteon Co. Ltd., priority 2019, published 2021).

A short description of this test: Deodorization performance: anisidine value (p-AV) by ultraviolet spectrometry after reaction with 0.2% 2-nonenal isooctane standard solution. The conditions noted are these: 20 ml 0.2% 2-nonenal isooctane solution (v/v) stirred 30 minutes with 20 ml composition; lower value = less aldehyde; Table 5. The procedure: At this time, 0.2% 2-nonenal isooctane solution (v/v) was used as a standard solution to determine the deodorizing performance. 2-Nonenal is a typical aldehyde compound generated by the oxidation of unsaturated fatty acids in human skin. […] The deodorizing performance of the deodorizing substances was determined by measuring the anisidine values (p-AV).
As for `NCCCC[C@H](N)C(=O)O` [Comparative Example 17, Lysine], the “Anisidine value (p-AV)” value is on record as 34.56. In the case of `O=S([O-])S(=O)(=O)[O-].[K+].[K+]` [Comparative Example 5, Potassium metabisulfite] it was 33.10; in that of `Nc1nc2nc[nH]c2c(=O)[nH]1` [Comparative Example 16, Guanine], 38.45; in that of `O=S([O-])S(=O)[O-].[Li+].[Li+]` [Comparative Example 10, Lithium hydrosulfite], 33.98. As for `O=S([O-])S(=O)(=O)[O-].[Na+].[Na+]` [Comparative Example 6, Sodium metabisulfite], the “Anisidine value (p-AV)” value is reported as 35.36.

Regarding `N=C(N)NCCC[C@H](N)C(=O)O` [Comparative Example 18, Arginine], the “Anisidine value (p-AV)” value came out at 38.41.

With `O=S([O-])S(=O)(=O)[O-].[Li+].[Li+]` [Comparative Example 7, Lithium metabisulfite], the “Anisidine value (p-AV)” value was found to be 34.27. Then `O=S([O-])O.[K+]` [Comparative Example 2, Potassium bisulfite], with 33.23; and `O=S([O-])S(=O)[O-].[K+].[K+]` [Comparative Example 9, Potassium hydrosulfite], with 34.10. For the molecule `O=S([O-])O.[Li+]` [Comparative Example 3, Lithium bisulfite], the “Anisidine value (p-AV)” value stood at 34.65. In the case of `Nc1ncnc2nc[nH]c12` [Comparative Example 15, Adenine] it was 36.23; in that of `Cc1c[nH]c(=O)[nH]c1=O` [Comparative Example 14, Thymine], 36.54; in that of `O=S([O-])S(=O)[O-].[Na+].[Na+]` [Comparative Example 8, Sodium hydrosulfite], 34.39. Take `N[C@@H](Cc1c[nH]cn1)C(=O)O` [Comparative Example 19, Histidine]: the “Anisidine value (p-AV)” value was determined as 38.09. Regarding `O=S([O-])O.[Na+]` [Comparative Example 1, Sodium bisulfite], the “Anisidine value (p-AV)” value worked out at 33.28. Then `Nc1ccnc(=O)[nH]1` [Comparative Example 13, Cytosine], with 37.21; and `O=S([O-])S(=O)(=O)[O-].[Na+].[Na+]` [Comparative Example 4, Sodium metabisulfite], with 34.48.
